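Exposure lasted 48 hours, with cells grown in 96-well plates and compounds tested at five concentrations. GI50: concentration for 50% inhibition of growth.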 Calls of active or inactive are those of the source. No stated cut-off is given here; in the data, active = GI50 up to about 1.1 µM and inactive = higher.
Assays:
Assay in all cases: NCI-60 cell line screen, 48 h
HOP-92 = tested on: HOP-92
ACHN = tested on: ACHN
LXFL 529 = tested on: LXFL 529
OVCAR-8 = tested on: OVCAR-8
SW-620 = tested on: SW-620
SNB-19 = tested on: SNB-19
SNB-78 = tested on: SNB-78
NCI-H522 = tested on: NCI-H522
DMS-114 = tested on: DMS-114
SF-295 = tested on: SF-295
CAKI-1 = tested on: CAKI-1
Malme-3M = tested on: Malme-3M
SR = tested on: SR
NCI-H23 = tested on: NCI-H23
CCRF-CEM = tested on: CCRF-CEM
SK-MEL-2 = tested on: SK-MEL-2
MOLT-4 = tested on: MOLT-4
KM-20L2 = tested on: KM-20L2
SK-MEL-5 = tested on: SK-MEL-5
TK-10 = tested on: TK-10
SK-OV-3 = tested on: SK-OV-3
UO-31 = tested on: UO-31
SF-268 = tested on: SF-268
HT-29 = tested on: HT-29
M19-MEL = tested on: M19-MEL
HCT-15 = tested on: HCT-15
RXF 393 = tested on: RXF 393
NCI-H226 = tested on: NCI-H226
HL-60 = tested on: HL-60
UACC-62 = tested on: UACC-62
A549 = tested on: A549
RPMI-8226 = tested on: RPMI-8226
U-251 = tested on: U-251
COLO 205 = tested on: COLO 205
UACC-257 = tested on: UACC-257
OVCAR-3 = tested on: OVCAR-3
EKVX = tested on: EKVX
KM12 = tested on: KM12
DMS-273 = tested on: DMS-273
786-0 = tested on: 786-0
K562 = tested on: K562
HCC 2998 = tested on: HCC 2998
OVCAR-4 = tested on: OVCAR-4
SK-MEL-28 = tested on: SK-MEL-28
SNB-75 = tested on: SNB-75
HOP-18 = tested on: HOP-18
IGROV-1 = tested on: IGROV-1
XF498 = tested on: XF498
HCT-116 = tested on: HCT-116
LOX IMVI = tested on: LOX IMVI
OVCAR-5 = tested on: OVCAR-5
M14 = tested on: M14
HOP-62 = tested on: HOP-62
NCI-H460 = tested on: NCI-H460
DLD-1 = tested on: DLD-1
PC-3 = tested on: PC-3
NCI/ADR-RES = tested on: NCI/ADR-RES
SF-539 = tested on: SF-539
Hs-578T = tested on: Hs-578T
MCF7 = tested on: MCF7
SN12C = tested on: SN12C
T47D = tested on: T47D
MDA-MB-435 = tested on: MDA-MB-435
BT-549 = tested on: BT-549
MDA-MB-231 = tested on: MDA-MB-231
MDA-N = tested on: MDA-N
DU-145 = tested on: DU-145

SMILES: O=C(c1ccccc1)c1nnn(Cc2cccc(Cl)c2)c1C(=O)c1ccccc1
- GI50 (HOP-92): > 100000 nM (inactive)
- GI50 (ACHN): > 100000 nM (inactive)
- GI50 (LXFL 529): 97500 nM (inactive)
- GI50 (OVCAR-8): > 100000 nM (inactive)
- GI50 (SW-620): > 100000 nM (inactive)
- GI50 (SNB-19): > 100000 nM (inactive)
- GI50 (SNB-78): > 100000 nM (inactive)
- GI50 (NCI-H522): > 100000 nM (inactive)
- GI50 (DMS-114): 78000 nM (inactive)
- GI50 (SF-295): > 100000 nM (inactive)
- GI50 (CAKI-1): 98200 nM (inactive)
- GI50 (Malme-3M): > 100000 nM (inactive)
- GI50 (SR): > 100000 nM (inactive)
- GI50 (NCI-H23): > 100000 nM (inactive)
- GI50 (CCRF-CEM): > 100000 nM (inactive)
- GI50 (SK-MEL-2): > 100000 nM (inactive)
- GI50 (MOLT-4): > 100000 nM (inactive)
- GI50 (KM-20L2): > 100000 nM (inactive)
- GI50 (SK-MEL-5): 88300 nM (inactive)
- GI50 (TK-10): > 100000 nM (inactive)
- GI50 (SK-OV-3): 34800 nM (inactive)
- GI50 (UO-31): > 100000 nM (inactive)
- GI50 (SF-268): > 100000 nM (inactive)
- GI50 (HT-29): > 100000 nM (inactive)
- GI50 (M19-MEL): > 100000 nM (inactive)
- GI50 (HCT-15): > 100000 nM
- GI50 (RXF 393): > 100000 nM (inactive)
- GI50 (NCI-H226): > 100000 nM (inactive)
- GI50 (HL-60): > 100000 nM (inactive)
- GI50 (UACC-62): > 100000 nM (inactive)
- GI50 (A549): 25200 nM (inactive)
- GI50 (RPMI-8226): > 100000 nM (inactive)
- GI50 (U-251): > 100000 nM (inactive)
- GI50 (COLO 205): 15000 nM (inactive)
- GI50 (UACC-257): > 100000 nM (inactive)
- GI50 (OVCAR-3): > 100000 nM (inactive)
- GI50 (EKVX): 44800 nM (inactive)
- GI50 (KM12): > 100000 nM (inactive)
- GI50 (DMS-273): > 100000 nM (inactive)
- GI50 (786-0): > 100000 nM (inactive)
- GI50 (K562): > 100000 nM (inactive)
- GI50 (HCC 2998): 44000 nM (inactive)
- GI50 (OVCAR-4): > 100000 nM (inactive)
- GI50 (SK-MEL-28): > 100000 nM (inactive)
- GI50 (SNB-75): > 100000 nM (inactive)
- GI50 (HOP-18): > 100000 nM (inactive)
- GI50 (IGROV-1): > 100000 nM (inactive)
- GI50 (XF498): > 100000 nM (inactive)
- GI50 (HCT-116): > 100000 nM (inactive)
- GI50 (LOX IMVI): > 100000 nM (inactive)
- GI50 (OVCAR-5): > 100000 nM (inactive)
- GI50 (M14): > 100000 nM (inactive)
- GI50 (HOP-62): > 100000 nM (inactive)
- GI50 (NCI-H460): 8170 nM (inactive)
- GI50 (DLD-1): > 100000 nM (inactive)

SMILES: Nc1ccc(Cn2ccc3c4c(N)nc(N)nc4ccc32)cc1
- GI50 (HOP-92): 710 nM (active)
- GI50 (ACHN): < 10 nM (active)
- GI50 (PC-3): 12.7 nM (active)
- GI50 (NCI/ADR-RES): 242 nM (active)
- GI50 (LXFL 529): 11.9 nM (active)
- GI50 (OVCAR-8): < 12.7 nM (active)
- GI50 (SW-620): < 10 nM (active)
- GI50 (SNB-19): 300 nM (active)
- GI50 (SF-539): < 18.4 nM (active)
- GI50 (SNB-78): 7350 nM (inactive)
- GI50 (NCI-H522): 84.7 nM (active)
- GI50 (Hs-578T): 2280 nM (inactive)
- GI50 (DMS-114): < 10 nM (active)
- GI50 (SF-295): < 10 nM (active)
- GI50 (CAKI-1): 11.9 nM (active)
- GI50 (Malme-3M): 137 nM (active)
- GI50 (MCF7): 35.1 nM (active)
- GI50 (SR): 39.3 nM (active)
- GI50 (NCI-H23): < 10 nM (active)
- GI50 (CCRF-CEM): < 10 nM (active)
- GI50 (SK-MEL-2): 1170 nM (inactive)
- GI50 (SN12C): < 20.7 nM (active)
- GI50 (MOLT-4): < 12.2 nM (active)
- GI50 (KM-20L2): < 10 nM (active)
- GI50 (SK-MEL-5): < 10 nM (active)
- GI50 (TK-10): 1580 nM (inactive)
- GI50 (SK-OV-3): 12300 nM (inactive)
- GI50 (UO-31): 406 nM (active)
- GI50 (SF-268): < 15.6 nM (active)
- GI50 (HT-29): < 10 nM (active)
- GI50 (M19-MEL): 83.4 nM (active)
- GI50 (HCT-15): < 10 nM
- GI50 (T47D): 818 nM (active)
- GI50 (RXF 393): 118 nM (active)
- GI50 (NCI-H226): 4270 nM (inactive)
- GI50 (HL-60): < 10 nM (active)
- GI50 (UACC-62): < 10 nM (active)
- GI50 (A549): < 10 nM (active)
- GI50 (MDA-MB-435): < 10 nM (active)
- GI50 (RPMI-8226): 165 nM (active)
- GI50 (U-251): < 10 nM (active)
- GI50 (COLO 205): 628 nM (active)
- GI50 (OVCAR-3): 431 nM (active)
- GI50 (EKVX): 6470 nM (inactive)
- GI50 (KM12): 32.1 nM (active)
- GI50 (BT-549): 219 nM (active)
- GI50 (DMS-273): < 10 nM (active)
- GI50 (786-0): < 25.2 nM (active)
- GI50 (MDA-MB-231): 1060 nM (active)
- GI50 (K562): < 10 nM (active)
- GI50 (HCC 2998): < 26.8 nM (active)
- GI50 (OVCAR-4): 1540 nM (inactive)
- GI50 (SK-MEL-28): 128 nM (active)
- GI50 (SNB-75): 804 nM (active)
- GI50 (HOP-18): 10200 nM (inactive)
- GI50 (IGROV-1): < 10 nM (active)
- GI50 (XF498): 1500 nM (inactive)
- GI50 (HCT-116): < 10 nM (active)
- GI50 (LOX IMVI): < 10 nM (active)
- GI50 (OVCAR-5): 22.4 nM (active)
- GI50 (M14): < 11.4 nM (active)
- GI50 (MDA-N): < 10 nM (active)
- GI50 (HOP-62): 14.1 nM (active)
- GI50 (DU-145): 12.3 nM (active)
- GI50 (NCI-H460): < 10 nM (active)
- GI50 (DLD-1): < 10 nM (active)
